# Assay results: US20250228239A1, “MOLECULES HAVING PESTICIDAL UTILITY, AND INTERMEDIATES, COMPOSITIONS, AND PROCESSES, RELATED THERETO” (priority 2024, published 2025)
# What was measured:
# Format in all cases: in vivo
# [1] = tested on: Beet Armyworm (Spodoptera exigua, LAPHEG); test: Bioassays on Beet Armyworm (BAW), 128-well diet tray assay; settings: Spodoptera exigua; Beet Armyworm, Table ABC / ABC-DP rating; read-out: BAW rating
# How it was run: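 Eight diet wells per compound were treated at 50 μg/cm^2 (acetone-water 90:10), dried, then infested with 1–5 second-instar larvae each. After five to seven days at 25 °C under 14:10 photoperiod, mortality was scored and averaged across wells.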
# [2] = tested on: Yellow Fever Mosquito (Aedes aegypti, AEDSAE); settings: Yellow Fever Mosquito, Table ABC / ABC-DP rating
# How it was run: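 Compounds from DMSO master plates (4000 ppm stock) diluted in 90:10 water/acetone, then dispensed into six replicate plates and infested with ~1-day-old Aedes aegypti larvae in liver-powder water. Held covered at room temperature for 3 days; each well scored for larval mortality and graded on a rating scale.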
# [3] = tested on: Cabbage Looper (Trichoplusia ni, TRIPNI); test: Bioassays on Cabbage Looper (CL), 128-well diet tray assay; settings: Trichoplusia ni; Cabbage Looper, Table ABC / ABC-DP rating; read-out: CL rating
# How it was run: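 Diet tray, 2nd instar, 1–5 larvae/well; 50 μg/cm^2 compound surface-applied (acetone:water 90:10), dried; 8 wells/treatment; 25° C, 14:10 L:D, 5–7 d; % mortality, mean of 8 wells.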
Structure (SMILES),pest or weed control at 50 µg/cm2 [1] [%],YFM rating [2],pest or weed control at 50 µg/cm2 [3] [%]
"O=C(CCC(F)(F)F)Nc1c(F)ccc(NC(=O)c2cc(NC(=O)[C@H]3[C@H](c4ccc(F)c(C(F)(F)F)c4)C3(Cl)Cl)ccc2Cl)c1F [F1800, 2-Chloro-5-((1R,3R)-2,2-dichloro-3-(4-fluoro-3-(trifluoromethyl)phenyl)cyclopropane-1-carboxamido)-N-(2,4-difluoro-3-(4,4,4-trifluorobutanamido)phenyl)benzamide]",50 to 100,A (80–100),50 to 100
"O=C(COC(F)(F)C(F)(F)F)Nc1c(F)ccc(NC(=O)c2cc(NC(=O)[C@H]3[C@H](c4ccc(F)c(C(F)(F)F)c4)C3(Cl)Cl)ccc2Cl)c1F [F1808, 2-Chloro-5-((1R,3R)-2,2-dichloro-3-(4-fluoro-3-(trifluoromethyl)phenyl)cyclopropane-1-carboxamido)-N-(2,4-difluoro-3-(2-(perfluoroethoxy)acetamido)phenyl)benzamide]",50 to 100,B (More than 0 – Less than 80),50 to 100
"CC1(C(=O)Nc2c(F)ccc(NC(=O)c3cc(NC(=O)[C@H]4[C@H](c5ccc(F)c(C(F)(F)F)c5)C4(Cl)Cl)ccc3Cl)c2F)CCCO1 (stereo partly drawn) [F1809, N-(3-(2-Chloro-5-((1R,3R)-2,2-dichloro-3-(4-fluoro-3-(trifluoromethyl)phenyl)cyclopropane-1-carboxamido)benzamido)-2,6-difluorophenyl)-2-methyltetrahydrofuran-2-carboxamide]",50 to 100,A (80–100),50 to 100
"C#CCN(C(=O)CC#N)c1c(F)ccc(NC(=O)c2cc(NC(=O)[C@H]3[C@H](c4ccc(F)c(C(F)(F)F)c4)C3(Cl)Cl)ccc2Cl)c1F [F1810, 2-Chloro-N-(3-(2-cyano-N-(prop-2-yn-1-yl)acetamido)-2,4-difluorophenyl)-5-((1R,3R)-2,2-dichloro-3-(4-fluoro-3-(trifluoromethyl)phenyl)cyclopropane-1-carboxamido)benzamide]",50 to 100,A (80–100),50 to 100
"O=C(Nc1ccc(F)c(NC(=O)C(F)(F)F)c1)c1cc(NC(=O)[C@H]2[C@H](c3ccc(Cl)c(Cl)c3)C2(Cl)Cl)ccc1Cl [F1812, 2-Chloro-5-((1R,3R)-2,2-dichloro-3-(3,4-dichlorophenyl)cyclopropane-1-carboxamido)-N-(4-fluoro-3-(2,2,2-trifluoroacetamido)phenyl)benzamide]",50 to 100,B (More than 0 – Less than 80),50 to 100
"O=C(Nc1ccc(F)c(NC(=O)C(F)(F)F)c1)c1cc(NC(=O)[C@H]2[C@H](c3cc(Cl)cc(Cl)c3)C2(Cl)Cl)ccc1Cl [F1813, 2-Chloro-5-((1R,3R)-2,2-dichloro-3-(3,5-dichlorophenyl)cyclopropane-1-carboxamido)-N-(4-fluoro-3-(2,2,2-trifluoroacetamido)phenyl)benzamide]",50 to 100,A (80–100),50 to 100
"O=C(Nc1ccc(F)c(NC(=O)C(F)(F)F)c1)c1cc(NC(=O)[C@H]2[C@H](c3ccc(F)c(Cl)c3)C2(Cl)Cl)ccc1Cl [F1814, 2-Chloro-5-((1R,3R)-2,2-dichloro-3-(3-chloro-4-fluorophenyl)cyclopropane-1-carboxamido)-N-(4-fluoro-3-(2,2,2-trifluoroacetamido)phenyl)benzamide]",50 to 100,A (80–100),50 to 100
"O=C(Nc1ccc(F)c(NC(=O)C(F)(F)F)c1)c1cc(NC(=O)[C@H]2[C@H](c3ccc(F)c(C(F)(F)F)c3)C2(Cl)Cl)ccc1Cl [F1815, 2-Chloro-5-((1R,3R)-2,2-dichloro-3-(4-fluoro-3-(trifluoromethyl)phenyl)cyclopropane-1-carboxamido)-N-(4-fluoro-3-(2,2,2-trifluoroacetamido)phenyl)benzamide]",50 to 100,A (80–100),50 to 100
"O=C(Nc1c(F)ccc(NC(=O)c2cc(NC(=O)[C@H]3[C@H](c4ccc(F)c(C(F)(F)F)c4)C3(Cl)Cl)ccc2Cl)c1F)c1ccon1 [F1818, N-(3-(2-Chloro-5-((1R,3R)-2,2-dichloro-3-(4-fluoro-3-(trifluoromethyl)phenyl)cyclopropane-1-carboxamido)benzamido)-2,6-difluorophenyl)isoxazole-3-carboxamide]",50 to 100,A (80–100),50 to 100
"O=C(Nc1c(F)ccc(NC(=O)c2cc(NC(=O)[C@H]3[C@H](c4ccc(F)c(C(F)(F)F)c4)C3(Cl)Cl)ccc2Cl)c1F)c1ccn(CC(F)(F)F)n1 [F1819, N-(3-(2-Chloro-5-((1R,3R)-2,2-dichloro-3-(4-fluoro-3-(trifluoromethyl)phenyl)cyclopropane-1-carboxamido)benzamido)-2,6-difluorophenyl)-1-(2,2,2-trifluoroethyl)-1H-pyrazole-3-carboxamide]",50 to 100,A (80–100),50 to 100
"CCOC(=O)C(F)C(=O)Nc1c(F)ccc(NC(=O)c2cc(NC(=O)[C@H]3[C@H](c4ccc(F)c(C(F)(F)F)c4)C3(Cl)Cl)ccc2Cl)c1F (stereo partly drawn) [F1822, Ethyl 3-((3-(2-chloro-5-((1R,3R)-2,2-dichloro-3-(4-fluoro-3-(trifluoromethyl)phenyl)cyclopropane-1-carboxamido)benzamido)-2,6-difluorophenyl)amino)-2-fluoro-3-oxopropanoate]",50 to 100,A (80–100),50 to 100
"N#CCC(=O)N(CCF)c1c(F)ccc(NC(=O)c2cc(NC(=O)[C@H]3[C@H](c4ccc(F)c(C(F)(F)F)c4)C3(Cl)Cl)ccc2Cl)c1F [F1823, 2-Chloro-N-(3-(2-cyano-N-(2-fluoroethyl)acetamido)-2,4-difluorophenyl)-5-((1R,3R)-2,2-dichloro-3-(4-fluoro-3-(trifluoromethyl)phenyl)cyclopropane-1-carboxamido)benzamide]",50 to 100,A (80–100),50 to 100
"O=C(Nc1ccc(F)c(NCCF)c1F)c1cc(NC(=O)[C@H]2[C@H](c3ccc(F)c(C(F)(F)F)c3)C2(Cl)Cl)ccc1Cl [F1826, 2-Chloro-5-((1R,3R)-2,2-dichloro-3-(4-fluoro-3-(trifluoromethyl)phenyl)cyclopropane-1-carboxamido)-N-(2,4-difluoro-3-((2-fluoroethyl)amino)phenyl)benzamide]",50 to 100,A (80–100),50 to 100
"CCOC(C)C(=O)N(CC)c1c(F)ccc(NC(=O)c2cc(NC(=O)[C@H]3[C@H](c4ccc(F)c(C(F)(F)F)c4)C3(Cl)Cl)ccc2Cl)c1F (stereo partly drawn) [F1827, 2-Chloro-5-((1R,3R)-2,2-dichloro-3-(4-fluoro-3-(trifluoromethyl)phenyl)cyclopropane-1-carboxamido)-N-(3-(2-ethoxy-N-ethylpropanamido)-2,4-difluorophenyl)benzamide]",50 to 100,A (80–100),50 to 100
